Results as given in PubChem BioAssay (NCI).
Where “and” joins values, the source holds several entries; their conditions need not be identical. Equal entries are not always repeated.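 Step 1: Grow cells in 96-well plates. Step 2: Expose to compound for 48 hours at 5 concentrations. Step 3: Interpolate endpoints linearly; if unreached, use highest concentration. TGI marks complete inhibition of growth.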

Key:
Test in all cases: NCI anticancer screen, dose series, 48 h
UACC-62 melanoma = test system: UACC-62 melanoma
RPMI-8226 leukemia = test system: RPMI-8226 leukemia
CCRF-CEM leukemia = test system: CCRF-CEM leukemia
NCI-H522 lung = test system: NCI-H522 lung
NCI-H23 lung = test system: NCI-H23 lung
MALME-3M melanoma = test system: MALME-3M melanoma
SNB-19 CNS = test system: SNB-19 CNS
SNB-75 CNS = test system: SNB-75 CNS
MDA-MB-435 = test system: MDA-MB-435
SF-268 CNS = test system: SF-268 CNS
HL-60(TB) leukemia = test system: HL-60(TB) leukemia
IGROV1 ovarian = test system: IGROV1 ovarian
U251 CNS = test system: U251 CNS
UO-31 renal = test system: UO-31 renal
MDA-MB-231 breast = test system: MDA-MB-231 breast
OVCAR-5 ovarian = test system: OVCAR-5 ovarian
T-47D breast = test system: T-47D breast
TK-10 renal = test system: TK-10 renal
RXF 393 renal = test system: RXF 393 renal

Structure (SMILES) | TGI (UACC-62 melanoma) | TGI (RPMI-8226 leukemia) | TGI (CCRF-CEM leukemia) | TGI (NCI-H522 lung) | TGI (NCI-H23 lung) | TGI (MALME-3M melanoma) | TGI (SNB-19 CNS) | TGI (SNB-75 CNS) | TGI (MDA-MB-435) | TGI (SF-268 CNS) | TGI (HL-60(TB) leukemia) | TGI (IGROV1 ovarian) | TGI (U251 CNS) | TGI (UO-31 renal) | TGI (MDA-MB-231 breast) | TGI (OVCAR-5 ovarian) | TGI (T-47D breast) | TGI (TK-10 renal) | TGI (RXF 393 renal) [µM]
COc1ccc2oc(=O)c3c(c2c1C)OC(C)(C)C=C3 | > 100 µM | > 100 µM | > 100 µM | > 100 µM | > 100 µM | > 100 µM | > 100 µM | > 100 µM | > 100 µM | > 100 µM | > 100 µM | > 100 µM | > 100 µM | > 100 µM | > 100 µM | > 100 µM | > 100 µM | > 100 µM | 
CC(C)[Si](OC1=C(C(=O)N(C)c2ccccc2Cl)CCCC1)(C(C)C)C(C)C | 34 µM | 55.4 µM | 29.7 µM | 19.2 µM | 31.4 µM | 26.4 µM | 25.6 µM | 27.5 µM | 31.2 µM | 29.2 µM |  | 31.4 µM | 25.8 µM | 27.6 µM | 31.3 µM | 26.3 µM | 10.5 µM | 29.5 µM | 30.1
NC1CC(=O)c2csc(Cl)c21 (stereo unspecified) | 24.7 µM |  | 3.68 µM | 3.32 µM | 54 µM | 7.56 µM | 33.2 µM | 31.8 µM | 27.3 µM | 31.8 µM | 13.1 µM | 42.2 µM | 22.9 µM | 12.7 µM | 22.5 µM | 37.1 µM | > 23.6 µM | 24.1 µM | 17.8
CC(C)C1SCc2nc3ccccc3n21 (stereo unspecified) | > 100 µM | > 100 µM | > 100 µM | > 100 µM | > 100 µM | > 100 µM | > 100 µM |  | 89.9 µM | > 100 µM | > 100 µM | > 100 µM | > 100 µM | > 100 µM | 78.2 µM | > 100 µM | > 100 µM | > 100 µM | > 100
COc1ccccc1N1C(=O)CS(=O)(=O)C1c1cccc(Oc2ccccc2)c1 (stereo unspecified) | 25.3 µM |  | > 100 µM | 29.3 µM | 37.3 µM | 30 µM | 38.7 µM | 48.2 µM | 22.2 µM | 33.1 µM | 79.9 µM |  | 29.7 µM | 35.1 µM | 30.7 µM | 59 µM | 48.3 µM | 33.8 µM | 38.8
NCCCCN(CCCN)Cc1ccccc1 | > 100 µM | > 100 µM | > 100 µM | > 100 µM | > 100 µM |  | > 100 µM | > 100 µM | > 100 µM | > 100 µM | > 100 µM | > 100 µM | > 100 µM | > 100 µM | > 100 µM | > 100 µM | > 100 µM | > 100 µM | > 100
CC(=O)c1nc2ccccc2n1CC(=O)c1ccc(Cl)cc1 | 27.8 µM | > 100 µM | > 100 µM | 23 µM | > 100 µM | 22.6 µM | > 100 µM |  | > 100 µM | > 100 µM | > 100 µM | 26.1 µM | > 100 µM | > 100 µM | > 100 µM |  | > 100 µM | > 100 µM | 98.5
Cc1ccc(CC2(OCCN(C)C)CCC(C(C)(C)C)CC2)cc1 (stereo unspecified) | 5.48 µM and 10 µM | 4 µM and 4.96 µM | 7.46 µM and 7.98 µM | 9.28 µM and 10.8 µM | 25.6 µM and 24.4 µM | 3.36 µM and 3.64 µM | 16.6 µM and 16.8 µM | 21.9 µM and 20.3 µM | 5.79 µM and 5.96 µM | 27.9 µM and 23.5 µM | 6.24 µM and 5.02 µM | 19.4 µM and 21.5 µM | 6.39 µM and 10.2 µM | 14.6 µM and 19 µM | 19 µM and 18.8 µM | 14 µM and 13.9 µM | 8.34 µM and 6.33 µM | 17.2 µM and 19.6 µM | 
COc1ccc(C2CC(c3ccc4ccccc4c3O)=NN2C(C)=O)cc1OC (stereo unspecified) | > 100 µM | > 100 µM | > 100 µM | > 100 µM | > 100 µM | > 100 µM |  | > 100 µM | > 100 µM | > 100 µM |  | > 100 µM | > 100 µM | > 100 µM | > 100 µM | > 100 µM | > 100 µM | > 100 µM | > 100
O=C(Nc1nnc(-c2c(Cl)c(Cl)c(Cl)c(Cl)c2-c2nc3cc(C(=O)c4ccccc4)ccc3[nH]2)o1)c1ccccc1 |  | 30.4 µM | 20.8 µM |  | 54.2 µM |  | 34.7 µM | 41.4 µM | 30.8 µM |  | 65.3 µM | 42 µM | 26.5 µM | > 100 µM | 33.7 µM | 55.7 µM | 54.7 µM | 50.7 µM | 39.1
CCCNC(C#N)c1ccc(OCCCCCCCCCCOc2ccc(C(C#N)NCCC)cc2)cc1 (stereo unspecified) | > 100 µM |  | 43.7 µM | > 100 µM | > 100 µM | > 100 µM | > 100 µM | > 100 µM | > 100 µM | > 100 µM | 43 µM | > 100 µM | 42.7 µM | > 100 µM | > 100 µM | > 100 µM | > 100 µM | 69.2 µM | 65.1
O=C1CSC(c2ccc(Cl)cc2)N1c1ccc(-c2ccc(-n3c(-c4ccccc4)nc4ccccc4c3=O)cc2)cc1 (stereo unspecified) | > 100 µM | > 100 µM | > 100 µM | > 100 µM | > 100 µM | > 100 µM | > 100 µM | 26.6 µM | 71.3 µM | > 100 µM | > 100 µM | > 100 µM | 85.8 µM | 59.5 µM | > 100 µM |  | 52.1 µM | > 100 µM | 
COCOCC1CCCN1CN1CCC[C@H]1COCOC (stereo partly specified) | > 100 µM | 99.5 µM | > 100 µM | > 100 µM | > 100 µM |  | > 100 µM | > 100 µM | > 100 µM | > 100 µM | 61.3 µM | > 100 µM | > 100 µM | > 100 µM | > 100 µM | > 100 µM | > 100 µM | > 100 µM | 
